According to ChEMBL document CHEMBL5375952, “Discovery of Novel 8-Hydroxyquinoline Derivatives with Potent In Vitro and In Vivo Antifungal Activity” (J Med Chem, 2023):
In brackets after ≈: the same amount, converted by molar mass.

Experiments:
Candida albicans [1] = experiment: Antifungal activity against Candida albicans SC5314 assessed as fungal growth inhibition incubated for 48 hrs by broth microdilution method; assay type: functional
Candida albicans [2] = experiment: Antifungal activity against Candida albicans 21 assessed as fungal growth inhibition incubated for 48 hrs by broth microdilution method; assay type: functional
Candida albicans [3] = experiment: Antifungal activity against Candida albicans 22 assessed as fungal growth inhibition incubated for 48 hrs by broth microdilution method; assay type: functional
Nakaseomyces glabratus [4] = experiment: Antifungal activity against Candida glabrata 201 assessed as fungal growth inhibition incubated for 48 hrs by broth microdilution method; assay type: functional
Nakaseomyces glabratus [5] = experiment: Antifungal activity against Candida glabrata 202 assessed as fungal growth inhibition incubated for 48 hrs by broth microdilution method; assay type: functional
Nakaseomyces glabratus [6] = experiment: Antifungal activity against Candida glabrata 205 assessed as fungal growth inhibition incubated for 48 hrs by broth microdilution method; assay type: functional
Pichia kudriavzevii [7] = experiment: Antifungal activity against Candida krusei 68 assessed as fungal growth inhibition incubated for 48 hrs by broth microdilution method; assay type: functional
Pichia kudriavzevii [8] = experiment: Antifungal activity against Candida krusei 69 assessed as fungal growth inhibition incubated for 48 hrs by broth microdilution method; assay type: functional
Pichia kudriavzevii [9] = experiment: Antifungal activity against Candida krusei 477 assessed as fungal growth inhibition incubated for 48 hrs by broth microdilution method; assay type: functional
Candida parapsilosis [10] = experiment: Antifungal activity against Candida parapsilosis 105 assessed as fungal growth inhibition incubated for 48 hrs by broth microdilution method; assay type: functional; conditions: Lodderomyces parapsilosis
Candida parapsilosis [11] = experiment: Antifungal activity against Candida parapsilosis 125 assessed as fungal growth inhibition incubated for 48 hrs by broth microdilution method; assay type: functional; conditions: Lodderomyces parapsilosis
Candida tropicalis [12] = experiment: Antifungal activity against Candida tropicalis 176 assessed as fungal growth inhibition incubated for 48 hrs by broth microdilution method; assay type: functional
Candida tropicalis [13] = experiment: Antifungal activity against Candida tropicalis 178 assessed as fungal growth inhibition incubated for 48 hrs by broth microdilution method; assay type: functional
Candida tropicalis [14] = experiment: Antifungal activity against Candida tropicalis 184 assessed as fungal growth inhibition incubated for 48 hrs by broth microdilution method; assay type: functional
Cryptococcus neoformans [15] = experiment: Antifungal activity against Cryptococcus neoformans 443 assessed as fungal growth inhibition incubated for 48 hrs by broth microdilution method; assay type: functional
Cryptococcus neoformans [16] = experiment: Antifungal activity against Cryptococcus neoformans 444 assessed as fungal growth inhibition incubated for 48 hrs by broth microdilution method; assay type: functional
Cryptococcus neoformans [17] = experiment: Antifungal activity against Cryptococcus neoformans 445 assessed as fungal growth inhibition incubated for 48 hrs by broth microdilution method; assay type: functional
Aspergillus fumigatus [18] = experiment: Antifungal activity against Aspergillus fumigatus A assessed as fungal growth inhibition incubated for 48 hrs by broth microdilution method; assay type: functional
Aspergillus fumigatus [19] = experiment: Antifungal activity against Aspergillus fumigatus 7544 assessed as fungal growth inhibition incubated for 48 hrs by broth microdilution method; assay type: functional
[20] = Cytotoxicity against human Caco-2 cells assessed as cell growth inhibition incubated for 24 hrs by CCK8 assay; assay type: toxicity, cell-based
Candida albicans [21] = experiment: Antifungal activity against Candida albicans 25 assessed as fungal growth inhibition incubated for 48 hrs by broth microdilution method; assay type: functional
Candida albicans [22] = experiment: Antifungal activity against Candida albicans 337 assessed as fungal growth inhibition incubated for 48 hrs by broth microdilution method; assay type: functional
Candida albicans [23] = experiment: Antifungal activity against Candida albicans 338 assessed as fungal growth inhibition incubated for 48 hrs by broth microdilution method; assay type: functional
[Candida] auris [24] = Antifungal activity against Candida auris 276 assessed as fungal growth inhibition incubated for 48 hrs by broth microdilution method; assay type: functional; conditions: Candidozyma auris
[Candida] auris [25] = Antifungal activity against Candida auris 277 assessed as fungal growth inhibition incubated for 48 hrs by broth microdilution method; assay type: functional; conditions: Candidozyma auris
[Candida] auris [26] = Antifungal activity against Candida auris 278 assessed as fungal growth inhibition incubated for 48 hrs by broth microdilution method; assay type: functional; conditions: Candidozyma auris
[Candida] auris [27] = Antifungal activity against Candida auris CBS 12372 assessed as fungal growth inhibition incubated for 48 hrs by broth microdilution method; assay type: functional; conditions: Candidozyma auris
[Candida] auris [28] = Antifungal activity against Candida auris 887 assessed as fungal growth inhibition incubated for 48 hrs by broth microdilution method; assay type: functional; conditions: Candidozyma auris
[Candida] auris [29] = Antifungal activity against Candida auris 888 assessed as fungal growth inhibition incubated for 48 hrs by broth microdilution method; assay type: functional; conditions: Candidozyma auris
Nakaseomyces glabratus [30] = experiment: Antifungal activity against Candida glabrata 203 assessed as fungal growth inhibition incubated for 48 hrs by broth microdilution method; assay type: functional
Nakaseomyces glabratus [31] = experiment: Antifungal activity against Candida glabrata 204 assessed as fungal growth inhibition incubated for 48 hrs by broth microdilution method; assay type: functional
Nakaseomyces glabratus [32] = experiment: Antifungal activity against Candida glabrata 222 assessed as fungal growth inhibition incubated for 48 hrs by broth microdilution method; assay type: functional
Pichia kudriavzevii [33] = experiment: Antifungal activity against Candida krusei 472 assessed as fungal growth inhibition incubated for 48 hrs by broth microdilution method; assay type: functional
Pichia kudriavzevii [34] = experiment: Antifungal activity against Candida krusei 474 assessed as fungal growth inhibition incubated for 48 hrs by broth microdilution method; assay type: functional
Candida parapsilosis [35] = experiment: Antifungal activity against Candida parapsilosis 104 assessed as fungal growth inhibition incubated for 48 hrs by broth microdilution method; assay type: functional; conditions: Lodderomyces parapsilosis
Candida parapsilosis [36] = experiment: Antifungal activity against Candida parapsilosis 106 assessed as fungal growth inhibition incubated for 48 hrs by broth microdilution method; assay type: functional; conditions: Lodderomyces parapsilosis
Candida tropicalis [37] = experiment: Antifungal activity against Candida tropicalis 172 assessed as fungal growth inhibition incubated for 48 hrs by broth microdilution method; assay type: functional
Candida tropicalis [38] = experiment: Antifungal activity against Candida tropicalis 177 assessed as fungal growth inhibition incubated for 48 hrs by broth microdilution method; assay type: functional
Candida tropicalis [39] = experiment: Antifungal activity against Candida tropicalis 182 assessed as fungal growth inhibition incubated for 48 hrs by broth microdilution method; assay type: functional
Cryptococcus neoformans [40] = experiment: Antifungal activity against Cryptococcus neoformans H99 assessed as fungal growth inhibition incubated for 48 hrs by broth microdilution method; assay type: functional
Cryptococcus neoformans [41] = experiment: Antifungal activity against Cryptococcus neoformans SH68 assessed as fungal growth inhibition incubated for 48 hrs by broth microdilution method; assay type: functional
Cryptococcus neoformans [42] = experiment: Antifungal activity against Cryptococcus neoformans 56992 assessed as fungal growth inhibition incubated for 48 hrs by broth microdilution method; assay type: functional
Cryptococcus neoformans [43] = experiment: Antifungal activity against Cryptococcus neoformans HN1 assessed as fungal growth inhibition incubated for 48 hrs by broth microdilution method; assay type: functional
Cryptococcus neoformans [44] = experiment: Antifungal activity against Cryptococcus neoformans HN2 assessed as fungal growth inhibition incubated for 48 hrs by broth microdilution method; assay type: functional
Cryptococcus neoformans [45] = experiment: Antifungal activity against Cryptococcus neoformans HN2-40 assessed as fungal growth inhibition incubated for 48 hrs by broth microdilution method; assay type: functional
Cryptococcus neoformans [46] = experiment: Antifungal activity against Cryptococcus neoformans HN17 assessed as fungal growth inhibition incubated for 48 hrs by broth microdilution method; assay type: functional
Cryptococcus neoformans [47] = experiment: Antifungal activity against Cryptococcus neoformans HN19 assessed as fungal growth inhibition incubated for 48 hrs by broth microdilution method; assay type: functional
Cryptococcus neoformans [48] = experiment: Antifungal activity against Cryptococcus neoformans HN20 assessed as fungal growth inhibition incubated for 48 hrs by broth microdilution method; assay type: functional
[49] = Antifungal activity against Cryptococcus gattii WM178 assessed as fungal growth inhibition incubated for 48 hrs by broth microdilution method; assay type: functional, Cryptococcus gattii VGI
[50] = Antifungal activity against Cryptococcus gattii WM179 assessed as fungal growth inhibition incubated for 48 hrs by broth microdilution method; assay type: functional, Cryptococcus gattii VGI
[51] = Antifungal activity against Cryptococcus gattii E566 assessed as fungal growth inhibition incubated for 48 hrs by broth microdilution method; assay type: functional, Cryptococcus gattii VGI
[52] = Antifungal activity against Cryptococcus gattii SCZ20024 assessed as fungal growth inhibition incubated for 48 hrs by broth microdilution method; assay type: functional, Cryptococcus gattii VGI
[53] = Antifungal activity against Cryptococcus gattii SCZ20031 assessed as fungal growth inhibition incubated for 48 hrs by broth microdilution method; assay type: functional, Cryptococcus gattii VGI

## OC(Cn1cncn1)(Cn1cncn1)c1ccc(F)cc1F [FLUCONAZOLE]
Candida albicans [1]
  MIC: 0.5 µg/mL (≈ 1.63 µM)
Candida albicans [2]
  MIC: 0.5 µg/mL (≈ 1.63 µM)
Candida albicans [3]
  MIC: 0.5 µg/mL (≈ 1.63 µM)
Nakaseomyces glabratus [4]
  MIC: 1 µg/mL (≈ 3.27 µM)
Nakaseomyces glabratus [5]
  MIC: 1 µg/mL (≈ 3.27 µM)
Nakaseomyces glabratus [6]
  MIC: 1 µg/mL (≈ 3.27 µM)
Pichia kudriavzevii [7]
  MIC: 0.25 µg/mL (≈ 0.816 µM)
Pichia kudriavzevii [8]
  MIC: 0.25 µg/mL (≈ 0.816 µM)
Pichia kudriavzevii [9]
  MIC: 0.25 µg/mL (≈ 0.816 µM)
Candida parapsilosis [10]
  MIC: > 64 µg/mL
Candida parapsilosis [11]
  MIC: > 64 µg/mL
Candida tropicalis [12]
  MIC: 2 µg/mL (≈ 6.53 µM)
Candida tropicalis [13]
  MIC: 2 µg/mL (≈ 6.53 µM)
Candida tropicalis [14]
  MIC: 2 µg/mL (≈ 6.53 µM)
Cryptococcus neoformans [15]
  MIC: 8 µg/mL (≈ 26.1 µM)
Cryptococcus neoformans [16]
  MIC: 8 µg/mL (≈ 26.1 µM)
Cryptococcus neoformans [17]
  MIC: 8 µg/mL (≈ 26.1 µM)
Aspergillus fumigatus [18]
  MIC: > 64 µg/mL
Aspergillus fumigatus [19]
  MIC: > 64 µg/mL
[20]
  IC50 at 24 h: > 64 µg/mL
Candida albicans [21]
  MIC: 0.5 µg/mL (≈ 1.63 µM)
Candida albicans [22]
  MIC: 0.25 µg/mL (≈ 0.816 µM)
Candida albicans [23]
  MIC: 0.5 µg/mL (≈ 1.63 µM)
[Candida] auris [24]
  MIC: 2 µg/mL (≈ 6.53 µM)
[Candida] auris [25]
  MIC: 4 µg/mL (≈ 13.1 µM)
[Candida] auris [26]
  MIC: > 64 µg/mL
[Candida] auris [27]
  MIC: > 64 µg/mL
[Candida] auris [28]
  MIC: > 64 µg/mL
[Candida] auris [29]
  MIC: > 64 µg/mL
Nakaseomyces glabratus [30]
  MIC: 0.125 µg/mL (≈ 0.408 µM)
Nakaseomyces glabratus [31]
  MIC: 1 µg/mL (≈ 3.27 µM)
Nakaseomyces glabratus [32]
  MIC: 1 µg/mL (≈ 3.27 µM)
Pichia kudriavzevii [33]
  MIC: > 64 µg/mL
Pichia kudriavzevii [34]
  MIC: > 64 µg/mL
Candida parapsilosis [35]
  MIC: 0.5 µg/mL (≈ 1.63 µM)
Candida parapsilosis [36]
  MIC: 0.5 µg/mL (≈ 1.63 µM)
Candida tropicalis [37]
  MIC: 0.125 µg/mL (≈ 0.408 µM)
Candida tropicalis [38]
  MIC: 2 µg/mL (≈ 6.53 µM)
Candida tropicalis [39]
  MIC: 0.125 µg/mL (≈ 0.408 µM)
Cryptococcus neoformans [40]
  MIC: 8 µg/mL (≈ 26.1 µM)
Cryptococcus neoformans [41]
  MIC: 8 µg/mL (≈ 26.1 µM)
Cryptococcus neoformans [42]
  MIC: 4 µg/mL (≈ 13.1 µM)
Cryptococcus neoformans [43]
  MIC: 4 µg/mL (≈ 13.1 µM)
Cryptococcus neoformans [44]
  MIC: 4 µg/mL (≈ 13.1 µM)
Cryptococcus neoformans [45]
  MIC: 8 µg/mL (≈ 26.1 µM)
Cryptococcus neoformans [46]
  MIC: 16 µg/mL (≈ 52.2 µM)
Cryptococcus neoformans [47]
  MIC: 8 µg/mL (≈ 26.1 µM)
Cryptococcus neoformans [48]
  MIC: 2 µg/mL (≈ 6.53 µM)
[49]
  MIC: 4 µg/mL (≈ 13.1 µM)
[50]
  MIC: 4 µg/mL (≈ 13.1 µM)
[51]
  MIC: 2 µg/mL (≈ 6.53 µM)
[52]
  MIC: 4 µg/mL (≈ 13.1 µM)
[53]
  MIC: 4 µg/mL (≈ 13.1 µM)
